Measured values reported in patent US9399646B2 (Genentech, Inc., priority 2010, dated 2016).

Columns and labels:
MCF-7 cells = experiment: Breast cancer cell viability assay (CellTiter-Glo, 5 days); format: cell-based; settings: 5 days' compound exposure; for IC50: Homo sapiens, MCF7, 120 h
Outline: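 MCF-7 cells, 320 per well in RPMI with 10% FBS and 20 mM HEPES, adhered overnight, then exposed 5 days to an eleven-point semilog dilution (final 0.3-0.000003 μM). CellTiter-Glo luminescence read; % viability = (sample − cell-free background)/(untreated − background) × 100.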

ER-α in MCF-7 cells = target: T1, ER-α in MCF-7 cells (Homo sapiens, UniProt P03372); experiment: Breast cancer cell ER-α in cell western assay (SP1); format: cell-based; parameters: endogenous in cells; host or cells: MCF-7; settings: 4 or 24 hr post compound addition; for Emax: MCF7, SP1 antibody, read-out: ER-α In Cell Western Assay (SP1) Max Response; for DC50: SP1 antibody, read-out: ER-α In Cell Western Assay (SP1) IC50
T1 sequence (P03372 1-595): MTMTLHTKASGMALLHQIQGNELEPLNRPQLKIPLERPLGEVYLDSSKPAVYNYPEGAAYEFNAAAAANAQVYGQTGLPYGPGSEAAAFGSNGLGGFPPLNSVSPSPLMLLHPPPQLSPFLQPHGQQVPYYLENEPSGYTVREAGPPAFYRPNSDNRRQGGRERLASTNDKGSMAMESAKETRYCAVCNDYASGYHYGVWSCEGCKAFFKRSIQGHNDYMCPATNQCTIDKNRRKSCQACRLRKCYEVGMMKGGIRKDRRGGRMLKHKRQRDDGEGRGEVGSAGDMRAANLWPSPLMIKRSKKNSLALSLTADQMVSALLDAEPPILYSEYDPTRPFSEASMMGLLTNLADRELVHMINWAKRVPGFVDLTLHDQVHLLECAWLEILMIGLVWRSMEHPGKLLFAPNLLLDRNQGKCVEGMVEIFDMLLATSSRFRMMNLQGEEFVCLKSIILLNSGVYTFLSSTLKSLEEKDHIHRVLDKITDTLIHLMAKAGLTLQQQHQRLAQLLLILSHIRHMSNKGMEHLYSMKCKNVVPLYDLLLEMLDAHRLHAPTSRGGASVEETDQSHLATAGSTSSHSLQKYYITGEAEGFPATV
Outline: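 Percent remaining ER: SP1 immunofluorescence normalized to DRAQ5 nuclear stain, compared with untreated controls. Treatment lasted 4 or 24 hr across 0.3–0.000003 μM final in MCF-7.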

| Structure (SMILES) | MCF7 Viability Assay Max Response (MCF-7 cells) | IC50 (MCF-7 cells) | Emax (ER-α in MCF-7 cells) | DC50 (ER-α in MCF-7 cells) |
| --- | --- | --- | --- | --- |
| CC/C(=C(/c1ccc(/C=C/c2noc(=S)[nH]2)cc1)c1ccc2[nH]ncc2c1)c1ccc(F)cc1Cl [Compound 441, 3-((E)-4-((E)-2-(2-Chloro-4-fluorophenyl)-1-(1H-indazol-5-yl)but-1-en-1-yl)styryl)-1,2,4-oxadiazole-5(4H)-thione] | + (+ = a single % value < 40%) | ≤ 100 nM | ≥ 40% | ≤ 100 nM |
| O=C(O)/C=C/c1ccc(/C(=C(\c2ccccc2)C2CCC2)c2ccc3scnc3c2)cc1 [Compound 286, (E)-3-(4-((E)-1-(Benzo[d]thiazol-5-yl)-2-cyclobutyl-2-phenylvinyl)phenyl)acrylic acid] | ++ (++ = a single % value ≧ 40%) | ≤ 100 nM | ≥ 40% | ≤ 100 nM |
| CC/C(=C(/c1ccc(/C=C/C(=O)O)cc1)c1ccc2cncn2c1)c1ccccc1 [Compound 133, (E)-3-(4-((E)-1-(Imidazo[1,5-a]pyridin-6-yl)-2-phenylbut-1-en-1-yl)phenyl)acrylic acid] | ++ (++ = a single % value ≧ 40%) | > 100 nM | ≥ 40% | > 100 nM |
| CC/C(=C(/c1ccc(/C=C/C(=O)O)cc1)c1ccc2[nH]ncc2c1)c1cccc2ccccc12 [Compound 50, (E)-3-(4-((E)-1-(1H-Indazol-5-yl)-2-(naphthalen-1-yl)but-1-en-1-yl)phenyl)acrylic acid] | ++ (++ = a single % value ≧ 40%) | ≤ 100 nM | ≥ 40% | ≤ 100 nM |
| CC/C(=C(/c1ccc(/C=C/C(=O)O)cc1)c1ccc2[nH]ncc2c1)c1ccc(Oc2ccncc2)cc1 [Compound 315, (E)-3-(4-((E)-1-(1H-Indazol-5-yl)-2-(4-(pyridin-4-yloxy)phenyl)but-1-en-1-yl)phenyl)acrylic acid] | ++ (++ = a single % value ≧ 40%) | ≤ 100 nM | ≥ 40% | ≤ 100 nM |
| CC/C(=C(/c1ccc(/C=C/C(=O)O)cc1)c1cnc2[nH]ccc2n1)c1ccccc1 [Compound 246, (E)-3-(4-((E)-2-Phenyl-1-(5H-pyrrolo[2,3-b]pyrazin-2-yl)but-1-en-1-yl)phenyl)acrylic acid] | + (+ = a single % value < 40%) | > 100 nM | ≥ 40% | > 100 nM |
| CC/C(=C(/c1ccc(/C=C/C(=O)O)cc1)c1ccc2scnc2c1)c1cccc(Oc2ccccn2)c1 [Compound 300, (E)-3-(4-((E)-1-(Benzo[d]thiazol-5-yl)-2-(3-(pyridin-2-yloxy)phenyl)but-1-en-1-yl)phenyl)acrylic acid] | ++ (++ = a single % value ≧ 40%) | > 100 nM | ≥ 40% | ≤ 100 nM |
| CC/C(=C(/c1ccc(/C=C/c2nn[nH]n2)cc1)c1ccc2scnc2c1)c1ccncc1Cl [Compound 446, 5-((E)-1-(4-((E)-2-(2H-Tetrazol-5-yl)vinyl)phenyl)-2-(3-chloropyridin-4-yl)but-1-en-1-yl)benzo[d]thiazole] | ++ (++ = a single % value ≧ 40%) | ≤ 100 nM | ≥ 40% | ≤ 100 nM |
| CC/C(=C(/c1ccc(/C=C/C(=O)O)cc1)c1ccc2scnc2c1)c1cccc(Oc2ccccc2)c1 [Compound 299, (E)-3-(4-((E)-1-(Benzo[d]thiazol-5-yl)-2-(3-phenoxyphenyl)but-1-en-1-yl)phenyl)acrylic acid] | ++ (++ = a single % value ≧ 40%) | > 100 nM | ≥ 40% | ≤ 100 nM |
| CC/C(=C(/c1ccc2cc(/C=C/C(=O)O)ccc2c1)c1ccc2[nH]ncc2c1)c1ccccc1 [Compound 180, (E)-3-(6-((E)-1-(1H-Indazol-5-yl)-2-phenylbut-1-en-1-yl)naphthalen-2-yl)acrylic acid] | ++ (++ = a single % value ≧ 40%) | ≤ 100 nM | ≥ 40% | ≤ 100 nM |
| CC/C(=C(/c1ccc(/C=C/C(=O)O)cc1)c1ccc2[nH]ncc2c1)c1ccc(C(=O)NC)cc1F [Compound 213, (E)-3-(4-((E)-2-(2-Fluoro-4-(methylcarbamoyl)phenyl)-1-(1H-indazol-5-yl)but-1-en-1-yl)phenyl)acrylic acid] | + (+ = a single % value < 40%) | > 100 nM | ≥ 40% | > 100 nM |
| CC/C(=C(/c1ccc(/C=C/C(=O)O)cc1)c1ccc2c(c1)OCC(=O)N2)c1ccccc1 [Compound 107, (E)-3-(4-((E)-1-(3-Oxo-3,4-dihydro-2H-benzo[b][1,4]oxazin-7-yl)-2-phenylbut-1-en-1-yl)phenyl)acrylic acid] | ++ (++ = a single % value ≧ 40%) | > 100 nM | ≥ 40% | > 100 nM |
| CC/C(=C(/c1ccc(/C=C/C(=O)O)cc1)c1ccc2nn(C(F)F)cc2c1)c1ccc(F)cc1Cl [Compound 402, (E)-3-(4-((E)-2-(2-Chloro-4-fluorophenyl)-1-(2-(difluoromethyl)-2H-indazol-5-yl)but-1-en-1-yl)phenyl)acrylic acid] | ++ (++ = a single % value ≧ 40%) | ≤ 100 nM | ≥ 40% | ≤ 100 nM |
| CC/C(=C(/c1ccc(/C=C/C(=O)O)cc1)c1ccc2[nH]ncc2c1F)c1cccc(Oc2ccc(S(C)(=O)=O)nc2)c1 [Compound 378, (E)-3-(4-((E)-1-(4-Fluoro-1H-indazol-5-yl)-2-(3-((6-(methylsulfonyl)pyridin-3-yl)oxy)phenyl)but-1-en-1-yl)phenyl)acrylic acid] | ++ (++ = a single % value ≧ 40%) | ≤ 100 nM | ≥ 40% | ≤ 100 nM |
| CC/C(=C(/c1ccc(/C=C/C(=O)O)cc1)c1ccc2c(cnn2-c2cccnc2)c1)c1ccccc1 [Compound 145, (E)-3-(4-((E)-2-Phenyl-1-(1-(pyridin-3-yl)-1H-indazol-5-yl)but-1-en-1-yl)phenyl)acrylic acid] | ++ (++ = a single % value ≧ 40%) | > 100 nM | ≥ 40% | > 100 nM |
| CC/C(=C(/c1ccc(/C=C/C(=O)O)cc1)c1ccc2[nH]ncc2c1)c1ccc2sncc2c1 [Compound 314, (E)-3-(4-((E)-2-(Benzo[d]isothiazol-5-yl)-1-(1H-indazol-5-yl)but-1-en-1-yl)phenyl)acrylic acid] | ++ (++ = a single % value ≧ 40%) | ≤ 100 nM | ≥ 40% | ≤ 100 nM |
| CC/C(=C(/c1ccc(/C=C/C(=O)O)cc1)c1ccc2[nH]ncc2c1)c1ccc2c(c1)CCO2 [Compound 256, (E)-3-(4-((E)-2-(2,3-Dihydrobenzofuran-5-yl)-1-(1H-indazol-5-yl)but-1-en-1-yl)phenyl)acrylic acid] | ++ (++ = a single % value ≧ 40%) | ≤ 100 nM | ≥ 40% | ≤ 100 nM |
| CC/C(=C(/c1ccc(/C=C/C(=O)O)cc1)c1ccc2[nH]ncc2c1)c1cccc(Oc2ccc(S(C)(=O)=O)cn2)c1 [Compound 379, (E)-3-(4-((E)-1-(1H-Indazol-5-yl)-2-(3-((5-(methylsulfonyl)pyridin-2-yl)oxy)phenyl)but-1-en-1-yl)phenyl)acrylic acid] | ++ (++ = a single % value ≧ 40%) | ≤ 100 nM | ≥ 40% | ≤ 100 nM |
| CC/C(=C(/c1ccc(/C=C/C(=O)O)cc1)c1ccc2nccn2c1)c1ccc(Cl)cc1Cl [Compound 232, (E)-3-(4-((E)-2-(2,4-Dichlorophenyl)-1-(imidazo[1,2-a]pyridin-6-yl)but-1-en-1-yl)phenyl)acrylic acid] | ++ (++ = a single % value ≧ 40%) | ≤ 100 nM | ≥ 40% | ≤ 100 nM |
| CC/C(=C(/c1ccc(/C=C/C(=O)O)cc1)c1ccc2[nH]ncc2c1)c1ccc2scnc2c1 [Compound 255, (E)-3-(4-((E)-2-(Benzo[d]thiazol-5-yl)-1-(1H-indazol-5-yl)but-1-en-1-yl)phenyl)acrylic acid] | ++ (++ = a single % value ≧ 40%) | ≤ 100 nM | ≥ 40% | ≤ 100 nM |
| CC/C(=C(/c1ccc(/C=C/C(=O)O)cc1)c1ccc2[nH]ncc2c1)c1ccc(-c2cncnc2)cc1 [Compound 383, (E)-3-(4-((E)-1-(1H-Indazol-5-yl)-2-(4-(pyrimidin-5-yl)phenyl)but-1-en-1-yl)phenyl)acrylic acid] | ++ (++ = a single % value ≧ 40%) | > 100 nM | ≥ 40% | > 100 nM |
